For three molecules, residual activity results are on record in ChEMBL document CHEMBL1152560, “Substituted 2-arylbenzothiazoles as kinase inhibitors: hit-to-lead optimization” (Bioorg Med Chem, 2009).

For assay [1], the target named is Death-associated protein kinase 2 (Homo sapiens) (UniProt Q9UIK4). In words: Residual activity of DAPK2 at 0.1 uM by microplate scintillation counting.
Assay [2] has as its target T1, Tyrosine-protein kinase Mer (Homo sapiens) (UniProt Q12866).
T1 sequence (whole entry): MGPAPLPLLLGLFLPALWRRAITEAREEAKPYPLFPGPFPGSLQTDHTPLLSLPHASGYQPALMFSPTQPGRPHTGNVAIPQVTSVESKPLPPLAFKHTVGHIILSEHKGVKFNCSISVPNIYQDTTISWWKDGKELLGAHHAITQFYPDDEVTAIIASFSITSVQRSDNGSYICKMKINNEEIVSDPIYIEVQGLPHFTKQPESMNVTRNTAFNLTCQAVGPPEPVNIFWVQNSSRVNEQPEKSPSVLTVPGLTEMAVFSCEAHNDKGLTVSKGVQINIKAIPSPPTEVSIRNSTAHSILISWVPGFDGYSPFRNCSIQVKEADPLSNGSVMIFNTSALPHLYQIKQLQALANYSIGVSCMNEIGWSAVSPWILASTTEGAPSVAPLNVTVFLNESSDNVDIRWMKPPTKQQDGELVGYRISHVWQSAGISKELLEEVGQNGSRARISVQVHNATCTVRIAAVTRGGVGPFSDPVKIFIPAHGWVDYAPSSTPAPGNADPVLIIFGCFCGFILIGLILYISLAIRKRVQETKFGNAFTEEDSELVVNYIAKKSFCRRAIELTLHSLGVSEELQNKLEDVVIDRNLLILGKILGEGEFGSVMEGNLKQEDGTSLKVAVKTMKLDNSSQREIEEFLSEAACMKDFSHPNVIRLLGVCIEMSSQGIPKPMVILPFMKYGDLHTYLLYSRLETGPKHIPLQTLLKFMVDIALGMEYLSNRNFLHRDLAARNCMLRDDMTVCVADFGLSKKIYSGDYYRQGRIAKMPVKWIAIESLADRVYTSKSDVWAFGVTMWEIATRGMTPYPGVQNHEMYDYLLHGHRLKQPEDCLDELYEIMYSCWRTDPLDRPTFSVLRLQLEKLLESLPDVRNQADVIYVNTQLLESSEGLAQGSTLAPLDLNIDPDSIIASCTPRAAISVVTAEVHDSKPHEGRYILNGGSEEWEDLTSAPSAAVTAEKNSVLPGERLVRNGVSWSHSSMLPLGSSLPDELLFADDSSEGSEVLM
In words: Residual activity of MERTK at 0.1 uM by microplate scintillation counting.

In assay [3] the target is LIM domain kinase 1 (Homo sapiens) (UniProt P53667). The experiment in a line: Residual activity of LIMK1 at 1 uM by microplate scintillation counting.
Assay [4] concerns the target T2, Serine/threonine-protein kinase Nek3 (Homo sapiens) (UniProt P51956).
T2 sequence (whole entry): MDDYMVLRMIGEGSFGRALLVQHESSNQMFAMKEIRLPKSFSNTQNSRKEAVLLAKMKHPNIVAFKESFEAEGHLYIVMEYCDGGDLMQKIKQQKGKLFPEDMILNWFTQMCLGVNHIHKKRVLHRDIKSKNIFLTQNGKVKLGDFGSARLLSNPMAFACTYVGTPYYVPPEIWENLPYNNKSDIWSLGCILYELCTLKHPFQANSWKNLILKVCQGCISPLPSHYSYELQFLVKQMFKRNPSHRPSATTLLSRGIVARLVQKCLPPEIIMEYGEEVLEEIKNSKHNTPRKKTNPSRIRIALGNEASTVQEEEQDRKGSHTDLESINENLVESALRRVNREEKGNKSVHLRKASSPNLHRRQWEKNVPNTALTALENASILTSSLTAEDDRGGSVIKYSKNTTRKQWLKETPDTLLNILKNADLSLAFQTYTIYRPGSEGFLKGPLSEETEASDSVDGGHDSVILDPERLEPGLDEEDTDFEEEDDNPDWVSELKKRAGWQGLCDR
In words: Residual activity of NEK3 at 1 uM by microplate scintillation counting.

Assay [5] concerns the target High affinity nerve growth factor receptor (Homo sapiens) (UniProt P04629). The experiment in a line: Residual activity of TRK-A at 1 uM by microplate scintillation counting.
The target of assay [6] is 5'-AMP-activated protein kinase catalytic subunit alpha-1 (Homo sapiens) (UniProt Q13131). The experiment in a line: Residual activity of AMPK-alpha1 fl at 10 uM by microplate scintillation counting.
Assay [7] deals with T3, Protein kinase C epsilon type (Homo sapiens) (UniProt Q02156).
T3 sequence (whole entry): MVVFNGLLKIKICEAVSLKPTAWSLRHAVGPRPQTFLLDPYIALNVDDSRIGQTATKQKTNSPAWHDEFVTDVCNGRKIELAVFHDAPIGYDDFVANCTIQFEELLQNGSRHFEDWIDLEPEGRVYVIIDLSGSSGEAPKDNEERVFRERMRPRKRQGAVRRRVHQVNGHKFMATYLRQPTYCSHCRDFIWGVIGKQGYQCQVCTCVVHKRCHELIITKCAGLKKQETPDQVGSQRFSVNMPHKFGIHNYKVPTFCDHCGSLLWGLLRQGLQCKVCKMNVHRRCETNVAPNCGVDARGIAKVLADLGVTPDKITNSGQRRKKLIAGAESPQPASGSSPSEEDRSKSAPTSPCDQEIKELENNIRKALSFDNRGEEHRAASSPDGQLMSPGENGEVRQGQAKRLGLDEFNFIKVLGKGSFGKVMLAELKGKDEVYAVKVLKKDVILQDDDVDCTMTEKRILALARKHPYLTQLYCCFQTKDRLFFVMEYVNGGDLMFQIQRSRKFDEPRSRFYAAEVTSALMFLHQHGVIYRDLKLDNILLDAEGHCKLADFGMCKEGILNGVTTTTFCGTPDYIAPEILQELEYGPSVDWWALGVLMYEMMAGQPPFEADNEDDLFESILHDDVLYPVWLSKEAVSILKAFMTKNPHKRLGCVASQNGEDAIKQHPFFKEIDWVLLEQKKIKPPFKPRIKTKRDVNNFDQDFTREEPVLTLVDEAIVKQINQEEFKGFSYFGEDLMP
In words: Residual activity of PKCepsilon at 0.1 uM by microplate scintillation counting.

Sequence of Death-associated protein kinase 2 (Homo sapiens) (Q9UIK4 whole entry, looked up): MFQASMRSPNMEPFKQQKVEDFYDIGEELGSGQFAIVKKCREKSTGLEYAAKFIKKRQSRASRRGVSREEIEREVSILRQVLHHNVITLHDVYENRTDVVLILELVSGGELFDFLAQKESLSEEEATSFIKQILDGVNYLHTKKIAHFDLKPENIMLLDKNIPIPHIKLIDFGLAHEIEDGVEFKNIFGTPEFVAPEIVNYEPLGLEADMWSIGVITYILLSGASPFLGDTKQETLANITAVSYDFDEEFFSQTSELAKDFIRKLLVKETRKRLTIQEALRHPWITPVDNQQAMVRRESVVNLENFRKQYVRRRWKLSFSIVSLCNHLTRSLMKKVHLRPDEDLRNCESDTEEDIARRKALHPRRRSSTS
Sequence of High affinity nerve growth factor receptor (Homo sapiens) (P04629 33-796 limits assumed): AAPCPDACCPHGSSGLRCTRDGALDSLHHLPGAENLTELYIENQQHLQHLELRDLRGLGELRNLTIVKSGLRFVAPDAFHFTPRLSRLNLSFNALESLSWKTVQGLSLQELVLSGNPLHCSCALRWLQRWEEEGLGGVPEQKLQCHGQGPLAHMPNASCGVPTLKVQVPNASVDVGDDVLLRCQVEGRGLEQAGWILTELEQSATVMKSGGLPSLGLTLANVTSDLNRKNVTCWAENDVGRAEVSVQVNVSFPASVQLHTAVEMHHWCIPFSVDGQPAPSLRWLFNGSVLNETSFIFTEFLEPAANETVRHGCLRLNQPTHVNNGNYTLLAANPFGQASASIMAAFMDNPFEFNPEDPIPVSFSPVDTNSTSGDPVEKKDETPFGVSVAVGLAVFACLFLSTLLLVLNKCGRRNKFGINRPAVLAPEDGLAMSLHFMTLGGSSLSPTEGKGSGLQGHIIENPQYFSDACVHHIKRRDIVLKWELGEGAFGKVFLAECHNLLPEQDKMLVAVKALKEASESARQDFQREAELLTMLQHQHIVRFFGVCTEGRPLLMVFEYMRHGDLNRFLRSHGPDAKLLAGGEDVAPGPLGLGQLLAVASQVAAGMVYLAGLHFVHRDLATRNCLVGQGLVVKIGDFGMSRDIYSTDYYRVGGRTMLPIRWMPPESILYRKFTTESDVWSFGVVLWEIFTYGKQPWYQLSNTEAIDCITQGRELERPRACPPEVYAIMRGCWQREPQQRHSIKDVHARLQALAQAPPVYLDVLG
Sequence of 5'-AMP-activated protein kinase catalytic subunit alpha-1 (Homo sapiens) (Q13131 whole entry, looked up): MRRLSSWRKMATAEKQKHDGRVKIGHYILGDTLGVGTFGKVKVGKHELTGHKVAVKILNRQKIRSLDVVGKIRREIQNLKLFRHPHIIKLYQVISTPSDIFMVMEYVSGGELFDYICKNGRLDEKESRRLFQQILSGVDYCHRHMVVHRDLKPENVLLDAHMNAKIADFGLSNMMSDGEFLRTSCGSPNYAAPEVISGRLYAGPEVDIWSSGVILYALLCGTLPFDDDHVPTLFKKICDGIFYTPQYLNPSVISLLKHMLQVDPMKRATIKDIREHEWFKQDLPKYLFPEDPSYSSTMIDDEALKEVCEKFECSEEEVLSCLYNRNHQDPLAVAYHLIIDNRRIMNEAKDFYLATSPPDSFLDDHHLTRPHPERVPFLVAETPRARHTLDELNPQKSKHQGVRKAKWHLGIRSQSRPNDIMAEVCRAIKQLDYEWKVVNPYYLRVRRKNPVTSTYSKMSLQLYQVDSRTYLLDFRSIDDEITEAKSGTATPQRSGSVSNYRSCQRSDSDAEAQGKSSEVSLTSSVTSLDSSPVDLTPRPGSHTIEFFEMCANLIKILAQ
Sequence of LIM domain kinase 1 (Homo sapiens) (P53667 whole entry, looked up, the tested form may be a part): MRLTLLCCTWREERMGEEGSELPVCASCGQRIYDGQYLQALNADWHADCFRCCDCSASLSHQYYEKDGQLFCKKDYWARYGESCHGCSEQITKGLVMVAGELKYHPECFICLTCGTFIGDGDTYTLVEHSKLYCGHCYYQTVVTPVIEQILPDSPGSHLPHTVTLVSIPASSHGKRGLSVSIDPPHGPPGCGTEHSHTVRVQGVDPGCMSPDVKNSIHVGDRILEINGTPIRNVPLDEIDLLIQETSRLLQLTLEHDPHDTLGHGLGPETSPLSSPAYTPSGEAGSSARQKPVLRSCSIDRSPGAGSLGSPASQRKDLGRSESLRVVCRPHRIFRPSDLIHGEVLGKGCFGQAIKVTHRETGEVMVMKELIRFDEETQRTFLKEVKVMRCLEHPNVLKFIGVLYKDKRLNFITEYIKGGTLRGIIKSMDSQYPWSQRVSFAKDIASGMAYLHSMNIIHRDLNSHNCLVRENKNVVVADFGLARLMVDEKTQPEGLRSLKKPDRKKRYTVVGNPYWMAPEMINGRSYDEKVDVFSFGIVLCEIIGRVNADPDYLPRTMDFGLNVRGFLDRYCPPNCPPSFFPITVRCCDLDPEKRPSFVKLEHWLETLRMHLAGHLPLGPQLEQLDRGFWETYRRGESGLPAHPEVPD

On to `COc1cc2c(Oc3ccc(-c4nc5ccccc5s4)cc3)ncnc2cc1OCCCN1CCN(C)CC1`, for which the residual activity came out at 81% in assay [1]; 75% in assay [2]; 83% in assay [3]; 102% in assay [4]; 83% in assay [5]; 61% in assay [6]. For the same molecule, the residual activity in assay [7] turned out to be 106%.

As for `COc1cc2c(Oc3ccc(-c4nc5ccccc5s4)cc3)ncnc2cc1OCCCN1CCCC1`, the residual activity in assay [1] was 96%; in assay [2] it was 57%; in assay [3], 82%; in assay [4], 110%; in assay [5] it was 72%; in assay [6], 73%. Further, in assay [7], the residual activity came to 112%.

Consider `COc1cc2c(Oc3ccc(-c4nc5ccccc5s4)cc3F)ncnc2cc1OCCCN1CCN(C)CC1`, for which the residual activity came to 85% in assay [1]; 68% in assay [2]; 81% in assay [3]; 103% in assay [4]; 86% in assay [5]; 57% in assay [6]. Also, the residual activity in assay [7] is 108%.
